The source of these data is patent US8748412B2, “Phenylalanine derivatives and their use as non-peptide GLP-1 receptor modulators” (Argusina Bioscience Inc., priority 2011, dated 2014).

Where two headings read alike, the source gives them in different places. Some results are limits rather than exact numbers.

The target of the assay is T1, human GLP1R (Homo sapiens, UniProt P43220).
T1 construct: expressed in transfected cells; host or cells: CHO cells (ATCC), transient transfection with pCMV-human GLP1R
The experiment in a line: Human GLP-1 receptor transfected cell assay (MRE/CRE-luciferase reporter gene, agonist activity). To be noted: for activation at 3.16 µM / activation at 5 µM / activation at 1 µM / activation at 10 µM / activation at 3 µM: 6 h; for activation at 5 µM: concentration 5 μM; for activation at 1 µM: concentration 1 μM; for activation at 3 µM: concentration 3 μM. The assay is classed as cell-based. The procedure: The glucagon-like peptide I receptor (GLP1R) is a class B Gs-coupled membrane receptor, an agonist of which activates adenylate cyclase (AC) and elevates intracellular cAMP level. In turn, the high content of secondary messengers can activate the cAMP response element binding protein (CREB), which can translocate into nucleus to activate gene transcription.
A reporter gene based screening assay was established to measure the effect of a compound on GLP1R. In this assay, a compound was incubated with CHO cells transiently transfected with a human GLP1R plasmid and a multiple response element (MRE)/cAMP response element (CRE)-driven luciferase reporter plasmid. Once luciferase was induced by the compound, its specific substrate can be activated to produce light signal for measurement.
Materials used in this assay included: (i) cell line: Chinese hamster ovary (CHO) cells (ATCC); (ii) fetal bovine serum (FBS) (Biochrom Co.); (iii) culture medium: RPMI1640 (Invitrogen Co.) supplemented with 10% FBS; (iv) LIPOFECTAMINE™ 2000 Reagent (Invitrogen Co.); (v) plasmids: pCMV-human GLP1R and pGL3-1905 reporter plasmid; (vi) GLP1 (7-36 amide) peptide (Sigma Co.); and (vii) BRIGHT-GLO™ Luciferase Assay System (Promega Co.).
Instruments used in this assay included: (i) Form a carbon dioxide incubator (Thermo Form a Co.); and (ii) Flexstation 3 (Molecular Device Co.).
Before transfection, CHO cells were plated into a 6-well culture plate at 800,000/2 mL/well, and cultured at 37° C. in 5% CO2 overnight. On the transfection day, cells were transfected with receptor plasmid and reporter plasmid using LIPOFECTAMINE™ 2000 reagent. After 6-hour transfection, cells were digested and seeded into 96-well plates at 20,000/100 μL/well. After 14-16 hour incubation, transfected cells were washed with 100 μL serum-free RPMII 640 medium first, and then added 50 μL of the culture medium. The GLP-1 standard and test compounds were respectively diluted to a series of concentrations, which were then added into the above 96-well culture plate at 50 μL/well. The cells were incubated at 37° C. in 5% CO2 for 6 hrs. The activity of luciferase was detected using BRIGHT-GLO™ Luciferase Analytic System, and the reading was performed with a Flexstation3 plate reader machine.

Where [1] appears, read: concentration 3.16 μM, read-out: Activity (agonist), percentage of the activity of the control.
The mark [2] stands for this setting: read-out: Activity (agonist), percentage of the activity of the control.
Setting [3] is: concentration 10 μM, read-out: Activity (agonist), percentage of the activity of the control.
Setting [4] is: conc. 10 μM, percentage of the activity of the control, read-out: Agonist Activity.

T1 sequence (P43220 24-463): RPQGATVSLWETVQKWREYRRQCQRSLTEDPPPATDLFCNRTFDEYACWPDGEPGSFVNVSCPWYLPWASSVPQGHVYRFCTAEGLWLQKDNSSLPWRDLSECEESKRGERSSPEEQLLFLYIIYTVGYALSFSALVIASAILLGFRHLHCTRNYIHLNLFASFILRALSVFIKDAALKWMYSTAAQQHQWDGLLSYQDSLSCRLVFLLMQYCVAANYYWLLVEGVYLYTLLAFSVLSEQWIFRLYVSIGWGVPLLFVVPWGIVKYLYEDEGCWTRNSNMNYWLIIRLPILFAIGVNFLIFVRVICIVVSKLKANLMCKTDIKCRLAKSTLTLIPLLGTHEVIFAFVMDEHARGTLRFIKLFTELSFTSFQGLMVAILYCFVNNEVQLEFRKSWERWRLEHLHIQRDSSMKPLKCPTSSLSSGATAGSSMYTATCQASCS

Turning to `Cc1ccc(S(=O)(=O)NC(C)(Cc2ccc(-c3noc(-c4ccc(NC(=O)OC(C)(C)C)cc4)n3)c(F)c2)C(=O)O)cc1` (centres unmarked) [Compound 3N], the activation at 3.16 µM under setting [1] lay within 20 to 40%.

Take `CC(C)(C)OC(=O)Nc1ccc(-c2nc(-c3ccc(CC(NC(=O)c4ccnc(Cl)c4)C(=O)O)cc3F)no2)cc1` (centres unmarked) [Compound 1F]: the activation at 5 µM under setting [2] was greater than 60%.

Take `Cc1ccc(-c2cccc(C(=O)NC(Cc3ccc(-c4noc(-c5ccc(NC(=O)OC(C)(C)C)cc5)n4)c(F)c3)C(=O)O)c2)cc1` (centres unmarked) [Compound 1U]: the activation at 1 µM under setting [2] is greater than 60%.

In the case of `CN(C)c1ccc(-c2ccc(C(=O)NC(Cc3ccc(-c4noc(-c5ccc(NC(=O)OC(C)(C)C)cc5)n4)c(F)c3)C(=O)O)o2)cc1` (centres unmarked) [Compound 1I], the activation at 3.16 µM under setting [1] is greater than 60%.

For the compound `Cc1cc(-c2ccc(C(=O)NC(Cc3ccc(-c4noc(-c5ccc(NC(=O)OC(C)(C)C)cc5)n4)c(F)c3)C(=O)O)o2)ccc1F` (centres unmarked) [Compound 1M], under setting [3], the activation at 10 µM is greater than 60%.

Take `CC(C)(C)OC(=O)Nc1ccc(-c2nc(-c3ccc(CC(NC(=O)Nc4cc(-c5ccc(F)c(Br)c5)n[nH]4)C(=O)O)cc3F)no2)cc1` (centres unmarked) [Compound 13S]: the activation at 10 µM under setting [4] was greater than 60%.

For `Cc1ccc(N2CCN(C(=O)NC(Cc3ccc(-c4noc(-c5ccc(NC(=O)OC(C)(C)C)cc5)n4)c(F)c3)C(=O)O)CC2)cc1` (centres unmarked) [Compound 4D], the activation at 1 µM under setting [2] was greater than 60%.

For the compound `Cc1ccc(-c2ccc(C(=O)N[C@H](Cc3ccc(/C=C/c4ccc(NC(=O)OC(C)(C)C)cc4)c(F)c3)C(=O)O)o2)cc1` [Compound 5T], the activation at 10 µM under setting [3] was greater than 60%.

As to `CC(C)(C)OC(=O)Nc1ccc(-c2nc(-c3ccc(CC(NS(=O)(=O)N4CCN(c5ccc(Cl)cc5)CC4)C(=O)O)cc3F)no2)cc1` (centres unmarked) [Compound 4A], under setting [3], the activation at 10 µM fell in the range of 40 to 60%.

For `CC(C)(C)OC(=O)Nc1ccc(-c2nc(-c3ccc(CC(NC(=O)/C=C/c4ccc(F)cc4)C(=O)O)cc3F)no2)cc1` (centres unmarked) [Compound 1C], under setting [3], the activation at 10 µM is greater than 60%.

As for `COc1cc2c(cc1OC(=O)c1ccc(NC(=O)OC(C)(C)C)cc1)CN(S(=O)(=O)c1ccc(C)cc1)C(C(=O)O)C2` (centres unmarked) [Compound 5V], the activation at 10 µM under setting [3] was greater than 60%.

For the compound `Cc1ccc(-c2ccc(C(=O)NC(Cc3ccc(-c4noc(-c5ccc(NC(=O)OC(C)(C)C)cc5)n4)cc3C(F)(F)F)C(=O)O)o2)cc1` (centres unmarked) [Compound 5J], under setting [1], the activation at 3.16 µM is greater than 60%.

Turning to `CC(C)(C)OC(=O)Nc1ccc(-c2nc(-c3ccc(C[C@@H](NC(=O)c4ccc(-c5ccc(C6CC6)cc5)o4)C(=O)O)cc3F)no2)cc1` [Compound 6G], the activation at 1 µM under setting [2] was 40 to 60%.

`Cc1cc(-c2ccc(C(=O)N[C@H](Cc3ccc(-c4noc(-c5ccc(NC(=O)OC(C)(C)C)cc5)n4)c(F)c3)C(=O)O)o2)ccc1F` [Compound 9E]: the activation at 1 µM under setting [2] is greater than 60%.

For the compound `CC(C)(C)OC(=O)Nc1ccc(-c2nc(-c3ccc(CC(NS(=O)(=O)N4CCN(C(=O)OC(C)(C)C)CC4)C(=O)O)cc3F)no2)cc1` (centres unmarked) [Compound 11W], under setting [4], the activation at 10 µM is 40 to 60%.

As to `CC(C)(C)OC(=O)Nc1ccc(-c2nc(-c3ccc(CC(NC(=O)c4cccc(NCc5ccccc5)c4)C(=O)O)cc3F)no2)cc1` (centres unmarked) [Compound 3U], under setting [2], the activation at 1 µM was 20 to 40%.

Consider `Cc1ccc(-n2cc(C(=O)NC(Cc3ccc(-c4noc(-c5ccc(NC(=O)OC(C)(C)C)cc5)n4)c(F)c3)C(=O)O)cn2)cc1F` (centres unmarked) [Compound 2P, 3-(4-(5-(4-((tert-butoxcarbonyl)amino)phenyl)-1,2,4-oxadiazol-3-yl)-3-fluorophenyl)-2-(1-(3-fluoro-4-methylphenyl)-1H-pyrazole-4-carboxamido)propanoic acid], for which the “Activity (agonist), percentage of the activity of the control” value (concentration 10 μM) is recorded as “A (A represents a value no smaller than 60%)”.

Consider `CC(C)c1ccc(S(=O)(=O)NC(Cc2ccc(-c3noc(-c4ccc(NC(=O)OC(C)(C)C)cc4)n3)c(F)c2)C(=O)O)cc1` (centres unmarked) [Compound 11C], for which the activation at 10 µM under setting [4] is 20 to 40%.

As for `Cc1ccc(-c2ccc(C(=O)N[C@H](Cc3ccc(F)c(-c4noc(-c5ccc(NC(=O)OC(C)(C)C)cc5)n4)c3)C(=O)O)o2)cc1` [Compound 1E], the activation at 3 µM under setting [2] is 40 to 60%.

In the case of `Cc1cc(-c2nc(C(=O)NC(Cc3ccc(-c4noc(-c5ccc(NC(=O)OC(C)(C)C)cc5)n4)c(F)c3)C(=O)O)c[nH]2)ccc1F` (centres unmarked) [Compound 2Q], under setting [1], the activation at 3.16 µM was greater than 60%.

For the compound `CN1CCN(c2ccc(C(=O)NC(Cc3ccc(-c4noc(-c5ccc(NC(=O)OC(C)(C)C)cc5)n4)c(F)c3)C(=O)O)o2)CC1` (centres unmarked) [Compound 11U], under setting [4], the activation at 10 µM fell in the range of 20 to 40%.

As for `CC(C)(C)OC(=O)Nc1ccc(-c2nc(-c3ccc(CC(NC(=O)c4ccc(-c5ccccn5)s4)C(=O)O)cc3F)no2)cc1` (centres unmarked) [Compound 1X], the activation at 3 µM under setting [2] fell in the range of 40 to 60%.

Consider `Cc1cc(-c2ccc(C(=O)N[C@@H](Cc3ccc(-c4noc(-c5ccc(NC(=O)OC(C)(C)C)cc5)n4)c(F)c3)C(=O)O)o2)ccc1F` [Compound 10E], for which the activation at 1 µM under setting [2] is greater than 60%.

With `CC(C)(C)OC(=O)Nc1ccc(-c2nc(-c3ccc(CC(NC(=O)Nc4ccc(-c5cccs5)cn4)C(=O)O)cc3F)no2)cc1` (centres unmarked) [Compound 13Z], the activation at 10 µM under setting [4] is greater than 60%.

On to `CC(C)(C)OC(=O)Nc1ccc(-c2nc(-c3ccc(CC(Nc4ccnc(N5CCCCC5)n4)C(=O)O)cc3F)no2)cc1` (centres unmarked) [Compound 3M, 3-{4-[5-(4-tert-Butoxycarbonylamino-phenyl)-[1,2,4]oxadiazol-3-yl]-3-fluoro-phenyl}-2-(2-piperidin-1-yl-pyrimidin-4-ylamino)-propionic acid], for which, under setting [3], the activation at 10 µM fell in the range of 20 to 40%.

For `CC(C)c1ccc(-n2cnc(C(=O)NC(Cc3ccc(-c4noc(-c5ccc(NC(=O)OC(C)(C)C)cc5)n4)c(F)c3)C(=O)O)n2)cc1` (centres unmarked) [Compound 3D], the activation at 10 µM under setting [3] was greater than 60%.

As to `Cc1ccc(N2CCN(CC(=O)NC(Cc3ccc(-c4noc(-c5ccc(NC(=O)OC(C)(C)C)cc5)n4)c(F)c3)C(=O)O)CC2)cc1` (centres unmarked) [Compound 5H], under setting [2], the activation at 5 µM is greater than 60%.

As for `CC(C)(C)OC(=O)Nc1ccc(-c2nc(-c3ccc(CC(NC(=O)c4cn(-c5ccc(C(F)(F)F)cc5)nn4)C(=O)O)cc3F)no2)cc1` (centres unmarked) [Compound 2A], the activation at 10 µM under setting [3] was greater than 60%.

`Cc1ccc(-c2ccc(C(=O)NC(Cc3ccc(-c4noc(-c5ccc(NC(=O)OC(C)(C)C)c(C)c5)n4)c(F)c3)C(=O)O)o2)cc1` (centres unmarked) [Compound 14D]: under setting [4], the activation at 10 µM lay in the range of 40 to 60%.

On to `CC(C)(C)OC(=O)Nc1ccc(-c2nc(-c3ccc(CC(NS(=O)(=O)N4CCN(c5ccccc5)CC4)C(=O)O)cc3F)no2)cc1` (centres unmarked) [Compound 11X], for which the activation at 10 µM under setting [4] is greater than 60%.

For the compound `CC(C)(C)OC(=O)Nc1ccc(-c2nc(-c3ccc(CC(NC(=O)c4c[nH]c(-c5ccc(Br)cn5)n4)C(=O)O)cc3F)no2)cc1` (centres unmarked) [Compound 2V], the activation at 3.16 µM under setting [1] is 40 to 60%.

On to `Cc1ccc(-c2cccc(C(=O)NC(Cc3ccc(-c4noc(-c5ccc(NC(=O)OC(C)(C)C)cc5)n4)c(F)c3)C(=O)O)n2)cc1` (centres unmarked) [Compound 2F], for which, under setting [3], the activation at 10 µM was 10 to 20%.

On to `CC(C)(C)OC(=O)Nc1ccc(-c2nc(-c3ccc(CC(NS(=O)(=O)c4ccc(OC(F)(F)F)cc4)C(=O)O)cc3F)no2)cc1` (centres unmarked) [Compound 11L], for which the activation at 10 µM under setting [4] lay in the range of 20 to 40%.

On to `Cc1ccc(-c2cccc(NC(=O)NC(Cc3ccc(-c4noc(-c5ccc(NC(=O)OC(C)(C)C)cc5)n4)c(F)c3)C(=O)O)c2)cc1` (centres unmarked) [Compound 5A], for which, under setting [2], the activation at 3 µM lay within 40 to 60%.

As for `Cc1ccc(-c2cccc(NC(=O)NC(Cc3ccc(-c4noc(-c5ccc(NC(=O)OC(C)(C)C)cc5)n4)c(F)c3)C(=O)O)c2)cc1` (centres unmarked) [Compound 13R], the activation at 10 µM under setting [4] was greater than 60%.

Regarding `Cc1ccc(-c2ccc(C(=O)NC(Cc3ccc(-c4noc(-c5ccc(NC(=O)OC(C)(C)C)cc5)n4)c(Br)c3)C(=O)O)o2)cc1` (centres unmarked) [Compound 13G], the activation at 3.16 µM (conc. 3.16 μM, percentage of the activity of the control, read-out: Agonist Activity) was greater than 60%.

Consider `Cc1ccc(-c2ccc(C(=O)N[C@H](Cc3ccc(-c4noc(-c5ccc(NC(=O)OC(C)(C)C)cc5)n4)c(C)c3)C(=O)O)o2)cc1` [Compound 6R], for which, under setting [2], the activation at 1 µM was greater than 60%.

Turning to `Cc1ccc(-c2ccc(C(=O)NC(Cc3ccc(-c4noc(-c5ccc(NC(=O)OC(C)(C)C)cc5)n4)c(F)c3)C(=O)O)o2)cc1` (centres unmarked) [Compound 1G, 3-{4-[5-(4-tert-Butoxycarbonylamino-phenyl)-[1,2,4]oxadiazol-3-yl]-3-fluoro-phenyl}-2-[(5-p-tolyl-furan-2-carbonyl)-amino]-propionic acid], the activation at 10 µM under setting [3] is greater than 60%.
